Measured values reported in ChEMBL document CHEMBL1137615, “Discovery of orally efficacious tetracyclic metabotropic glutamate receptor 1 (mGluR1) antagonists for the treatment of chronic pain” (J Med Chem, 2007).

Columns and labels:
[1] = biological target: T1, Metabotropic glutamate receptor 5 (Homo sapiens, UniProt P41594); assay: Antagonist activity at human mGluR5b expressed in HEK293 cells assessed by measuring intracellular calcium by FLIPR assay; assay type: functional, cell-based
Target sequence in this assay (P41594 whole entry): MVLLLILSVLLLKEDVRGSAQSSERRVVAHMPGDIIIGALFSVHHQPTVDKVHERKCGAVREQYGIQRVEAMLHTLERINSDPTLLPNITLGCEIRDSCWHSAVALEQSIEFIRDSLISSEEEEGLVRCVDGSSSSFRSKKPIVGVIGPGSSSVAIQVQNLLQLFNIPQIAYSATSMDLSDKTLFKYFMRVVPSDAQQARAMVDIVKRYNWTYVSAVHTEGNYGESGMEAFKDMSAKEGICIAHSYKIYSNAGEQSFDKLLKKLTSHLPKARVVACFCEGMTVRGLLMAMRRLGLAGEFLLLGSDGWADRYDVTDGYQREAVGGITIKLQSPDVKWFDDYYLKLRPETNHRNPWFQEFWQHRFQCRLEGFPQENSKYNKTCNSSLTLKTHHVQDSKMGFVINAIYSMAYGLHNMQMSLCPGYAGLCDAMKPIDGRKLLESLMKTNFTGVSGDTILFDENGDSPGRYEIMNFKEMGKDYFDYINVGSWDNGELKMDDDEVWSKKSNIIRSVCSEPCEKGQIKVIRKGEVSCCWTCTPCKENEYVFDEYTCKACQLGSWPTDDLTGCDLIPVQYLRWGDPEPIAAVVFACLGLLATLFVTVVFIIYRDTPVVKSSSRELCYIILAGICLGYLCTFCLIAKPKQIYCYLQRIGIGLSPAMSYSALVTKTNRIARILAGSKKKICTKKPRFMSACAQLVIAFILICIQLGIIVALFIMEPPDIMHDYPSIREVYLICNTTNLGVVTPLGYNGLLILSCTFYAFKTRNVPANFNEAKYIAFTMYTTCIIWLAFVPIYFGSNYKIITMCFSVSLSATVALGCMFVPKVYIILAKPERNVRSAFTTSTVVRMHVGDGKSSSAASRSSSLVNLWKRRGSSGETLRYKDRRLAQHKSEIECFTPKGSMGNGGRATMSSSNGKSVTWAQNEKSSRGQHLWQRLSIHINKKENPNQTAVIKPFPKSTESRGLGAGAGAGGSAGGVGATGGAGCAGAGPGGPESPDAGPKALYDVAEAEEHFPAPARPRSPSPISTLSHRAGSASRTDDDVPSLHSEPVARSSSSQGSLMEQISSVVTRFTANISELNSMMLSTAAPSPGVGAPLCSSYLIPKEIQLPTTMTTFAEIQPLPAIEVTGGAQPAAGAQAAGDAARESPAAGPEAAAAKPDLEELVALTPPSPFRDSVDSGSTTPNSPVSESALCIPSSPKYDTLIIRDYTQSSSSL

[2] = biological target: Metabotropic glutamate receptor 1 (Rattus norvegicus, UniProt P23385); assay: Displacement of [3H]9-Dimethylamino-3-(4-methoxy-phenyl)-3H-pyrido[3',2':4,5]thieno[3,2-d]pyrimidin-4-one from mGluR1 in rat cerebellum membrane; assay type: cell membranes
Sequence of Metabotropic glutamate receptor 1 (Rattus norvegicus, UniProt P23385) (P23385 whole entry): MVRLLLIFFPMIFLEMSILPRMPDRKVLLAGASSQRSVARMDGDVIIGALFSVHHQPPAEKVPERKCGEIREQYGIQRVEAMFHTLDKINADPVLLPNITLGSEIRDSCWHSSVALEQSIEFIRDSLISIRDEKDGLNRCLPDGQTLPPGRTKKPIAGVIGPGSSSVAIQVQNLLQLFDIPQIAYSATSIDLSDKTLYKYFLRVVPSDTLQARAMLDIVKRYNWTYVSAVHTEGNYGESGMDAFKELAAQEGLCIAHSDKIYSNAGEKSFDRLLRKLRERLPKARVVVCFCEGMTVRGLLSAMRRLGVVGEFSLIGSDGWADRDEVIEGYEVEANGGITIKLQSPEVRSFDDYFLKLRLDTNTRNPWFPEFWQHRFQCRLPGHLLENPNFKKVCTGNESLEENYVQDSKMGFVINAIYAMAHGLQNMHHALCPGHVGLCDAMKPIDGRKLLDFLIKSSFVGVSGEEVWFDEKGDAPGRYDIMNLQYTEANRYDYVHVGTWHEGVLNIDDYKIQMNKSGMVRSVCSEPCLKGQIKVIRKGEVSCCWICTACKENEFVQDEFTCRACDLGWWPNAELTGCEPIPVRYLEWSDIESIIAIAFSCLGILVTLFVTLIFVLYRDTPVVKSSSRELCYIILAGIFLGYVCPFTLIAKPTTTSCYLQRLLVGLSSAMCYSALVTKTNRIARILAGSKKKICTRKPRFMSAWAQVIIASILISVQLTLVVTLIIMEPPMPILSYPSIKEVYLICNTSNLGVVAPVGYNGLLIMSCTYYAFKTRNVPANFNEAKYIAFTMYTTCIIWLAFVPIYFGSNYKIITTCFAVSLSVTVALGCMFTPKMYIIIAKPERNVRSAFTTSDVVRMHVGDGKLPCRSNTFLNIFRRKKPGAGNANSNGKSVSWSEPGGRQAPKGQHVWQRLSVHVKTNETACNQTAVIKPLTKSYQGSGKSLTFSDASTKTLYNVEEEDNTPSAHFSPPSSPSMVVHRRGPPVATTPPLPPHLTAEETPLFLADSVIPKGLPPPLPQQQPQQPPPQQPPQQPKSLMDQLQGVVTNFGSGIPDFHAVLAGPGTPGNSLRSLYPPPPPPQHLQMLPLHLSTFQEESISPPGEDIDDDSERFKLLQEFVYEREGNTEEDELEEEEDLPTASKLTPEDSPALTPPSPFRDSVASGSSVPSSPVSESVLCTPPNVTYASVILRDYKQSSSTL

[3] = AUC (0 to 6 hrs) in rat at 10 mg/kg, po by CARRS; assay type: ADME, organism-based; design: time < 6 hr, dose 10 mg/kg, route oral; conditions: plasma
[4] = Tmax in rat at 10 mg/kg, po by CARRS; assay type: ADME, organism-based; design: dose 10 mg/kg, route oral; conditions: in vivo
[5] = Cmax in rat at 10 mg/kg, po by CARRS; assay type: ADME, organism-based; design: dose 10 mg/kg, route oral; conditions: in vivo
Rattus norvegicus [6] = assay: Effect on neuropathic pain in SNL rat model assessed as paw withdrawal threshold at 10 mg/kg, po; assay type: functional
Rattus norvegicus [7] = assay: Inhibition of neuropathic pain in SNL rat model at 10 mg/kg, po; assay type: functional
Rattus norvegicus [8] = assay: Effect on neuropathic pain in orally dosed SNL rat model; assay type: functional; conditions: po
[9] = biological target: Metabotropic glutamate receptor 1 (Homo sapiens, UniProt Q13255); assay: Antagonist activity at human mGluR1a expressed in CHO cells assessed by measuring intracellular calcium by FLIPR assay; assay type: functional, cell-based
Sequence of Metabotropic glutamate receptor 1 (Homo sapiens, UniProt Q13255) (Q13255 whole entry): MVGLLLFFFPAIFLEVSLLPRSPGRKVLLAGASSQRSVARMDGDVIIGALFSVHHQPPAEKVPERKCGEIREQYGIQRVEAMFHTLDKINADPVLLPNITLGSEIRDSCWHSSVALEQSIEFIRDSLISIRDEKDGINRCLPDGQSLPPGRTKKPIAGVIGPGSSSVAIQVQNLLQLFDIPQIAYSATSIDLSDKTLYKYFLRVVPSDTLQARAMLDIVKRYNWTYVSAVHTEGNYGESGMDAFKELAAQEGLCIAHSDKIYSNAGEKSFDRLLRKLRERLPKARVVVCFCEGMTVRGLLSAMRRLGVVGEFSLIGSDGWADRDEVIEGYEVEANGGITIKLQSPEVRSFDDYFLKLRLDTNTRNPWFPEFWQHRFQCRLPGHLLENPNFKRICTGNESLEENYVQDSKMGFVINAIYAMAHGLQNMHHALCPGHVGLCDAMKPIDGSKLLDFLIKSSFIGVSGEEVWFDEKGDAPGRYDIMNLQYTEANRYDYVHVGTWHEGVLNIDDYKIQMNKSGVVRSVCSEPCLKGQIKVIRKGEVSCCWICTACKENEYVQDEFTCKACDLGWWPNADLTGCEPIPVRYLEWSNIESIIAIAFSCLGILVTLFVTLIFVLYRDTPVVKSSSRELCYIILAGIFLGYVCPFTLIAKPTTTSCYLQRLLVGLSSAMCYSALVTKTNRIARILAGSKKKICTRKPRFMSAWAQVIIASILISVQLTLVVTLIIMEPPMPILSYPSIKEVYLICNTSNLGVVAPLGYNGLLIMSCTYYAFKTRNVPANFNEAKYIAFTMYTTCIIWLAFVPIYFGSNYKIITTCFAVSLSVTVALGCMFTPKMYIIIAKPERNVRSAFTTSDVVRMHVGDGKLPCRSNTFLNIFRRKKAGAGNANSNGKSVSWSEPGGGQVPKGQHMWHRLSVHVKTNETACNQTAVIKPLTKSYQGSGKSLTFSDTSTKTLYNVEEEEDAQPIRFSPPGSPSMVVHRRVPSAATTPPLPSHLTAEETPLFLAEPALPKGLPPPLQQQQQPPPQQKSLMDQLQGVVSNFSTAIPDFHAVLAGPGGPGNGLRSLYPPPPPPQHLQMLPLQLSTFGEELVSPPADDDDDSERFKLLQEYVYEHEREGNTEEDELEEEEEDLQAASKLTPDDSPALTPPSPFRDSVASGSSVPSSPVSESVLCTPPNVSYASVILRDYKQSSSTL

[10] = biological target: T1, Metabotropic glutamate receptor 5; assay: Displacement of radioligand from human mGluR5b expressed in HEK293 cells at 1 uM; assay type: cell-based
Target sequence in this assay (P41594 21-1212 limits assumed): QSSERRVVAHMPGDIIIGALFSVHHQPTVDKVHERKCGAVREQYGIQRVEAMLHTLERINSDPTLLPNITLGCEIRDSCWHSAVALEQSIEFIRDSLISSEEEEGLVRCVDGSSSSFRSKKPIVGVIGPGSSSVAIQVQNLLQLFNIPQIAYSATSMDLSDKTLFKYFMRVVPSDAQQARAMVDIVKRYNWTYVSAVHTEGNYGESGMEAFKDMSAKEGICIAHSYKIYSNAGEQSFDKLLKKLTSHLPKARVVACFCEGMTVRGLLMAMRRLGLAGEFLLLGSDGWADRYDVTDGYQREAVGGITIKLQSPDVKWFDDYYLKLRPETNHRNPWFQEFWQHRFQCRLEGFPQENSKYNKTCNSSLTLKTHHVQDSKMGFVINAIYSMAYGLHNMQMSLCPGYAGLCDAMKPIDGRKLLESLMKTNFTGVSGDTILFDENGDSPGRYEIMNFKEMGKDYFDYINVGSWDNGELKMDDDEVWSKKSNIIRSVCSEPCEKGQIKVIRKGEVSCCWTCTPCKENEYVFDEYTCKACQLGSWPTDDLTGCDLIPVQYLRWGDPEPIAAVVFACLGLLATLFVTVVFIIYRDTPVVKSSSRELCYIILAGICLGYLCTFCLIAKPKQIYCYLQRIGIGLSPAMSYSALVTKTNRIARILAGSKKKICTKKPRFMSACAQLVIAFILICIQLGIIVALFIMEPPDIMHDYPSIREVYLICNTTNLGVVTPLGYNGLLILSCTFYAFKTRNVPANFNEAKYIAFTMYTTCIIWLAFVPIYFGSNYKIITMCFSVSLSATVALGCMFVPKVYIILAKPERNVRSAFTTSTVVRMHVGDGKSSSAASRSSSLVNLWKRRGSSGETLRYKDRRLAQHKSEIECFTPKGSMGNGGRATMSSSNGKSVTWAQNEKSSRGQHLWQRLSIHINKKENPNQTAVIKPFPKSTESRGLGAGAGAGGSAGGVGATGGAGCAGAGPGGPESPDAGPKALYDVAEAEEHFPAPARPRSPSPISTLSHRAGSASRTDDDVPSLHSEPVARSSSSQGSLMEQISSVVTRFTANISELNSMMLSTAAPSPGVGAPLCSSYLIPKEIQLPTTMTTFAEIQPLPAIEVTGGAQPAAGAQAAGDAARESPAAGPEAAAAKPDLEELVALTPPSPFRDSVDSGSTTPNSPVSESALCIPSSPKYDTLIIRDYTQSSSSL

| Compound | IC50 [1] [nM] | Ki [2] [nM] | AUC(0-t) at 6 h [3] [µM·h] | Tmax [4] [h] | Cmax [5] [nM] | Activity (Rattus norvegicus [6]) [g] | MPE (Rattus norvegicus [7]) [%] | ED50 (Rattus norvegicus [8]) [mg/kg] | IC50 [9] [nM] | Activity [10] [%] |
| --- | --- | --- | --- | --- | --- | --- | --- | --- | --- | --- |
| O=c1c2sc3ncc4c(c3c2ncn1-c1ccc(Cl)cc1)NCCO4 | > 1000 | 0.4 | 0.366 | 1 | 198 | 11.8 | 73 | 5.1 | – | – |
| Cc1ccc(-n2cnc3c(sc4ncc5sc(=S)[nH]c5c43)c2=O)cc1 | – | 1000 | – | – | – | – | – | – | 541 | -10 |
| Cn1cnc2cnc3sc4c(=O)n(-c5ccc(Cl)cc5)cnc4c3c21 | – | 104 | – | – | – | – | – | – | – | 0.15 |
| COc1ccc(-n2cnc3c(sc4ncc5c(c43)NCCO5)c2=O)cc1 | > 1000 | 1 | 1.56 | 2 | 467 | 8.5 | 50 | 8 | – | – |
| CNc1c(Br)cnc2sc3c(=O)n(-c4ccc(Cl)cc4)cnc3c12 | – | – | – | – | – | – | – | – | 5.9 | – |
| Cc1ccc(-n2cnc3c(sc4ncc5sc(=O)[nH]c5c43)c2=O)cc1 | – | 1000 | – | – | – | – | – | – | 446 | -8 |
| C[C@H]1CNc2c(cnc3sc4c(=O)n(-c5ccc(Cl)cc5)cnc4c23)O1 | > 1000 | 1.5 | 8.43 | 2 | 2050 | 7.7 | 44 | – | – | – |
| COc1ccc(-n2cnc3c(sc4ncc5c(c43)NC[C@@H](C)O5)c2=O)cc1 | > 1000 | 0.3 | – | – | – | – | – | – | 2.4 | – |
| C[C@@H]1CNc2c(cnc3sc4c(=O)n(-c5ccc(Cl)cc5)cnc4c23)O1 | > 1000 | 0.2 | 5.19 | 0.5 | 1420 | 10.9 | 68 | – | – | – |
| O=c1c2sc3ncc4nc[nH]c4c3c2ncn1-c1ccc(Cl)cc1 | – | 10.8 | – | – | – | – | – | – | – | -1.7 |
| C[C@@H]1COc2cnc3sc4c(=O)n(-c5ccc(Cl)cc5)cnc4c3c2N1 | > 1000 | 9.1 | – | – | – | – | – | – | 24.4 | – |
| Cc1ccc(-n2cnc3c(sc4ncc5c(c43)NC[C@@H](C)O5)c2=O)cc1 | 609 | 0.6 | – | – | – | – | – | – | – | – |
| Cc1ccc(-n2cnc3c(sc4ncc5cn[nH]c5c43)c2=O)cc1 | – | 17.8 | – | – | – | – | – | – | 16.8 | 5 |
| CSc1nc2c(cnc3sc4c(=O)n(-c5ccc(C)cc5)cnc4c32)s1 | – | 788 | – | – | – | – | – | – | 636 | -2 |
| C[C@H]1COc2cnc3sc4c(=O)n(-c5ccc(Cl)cc5)cnc4c3c2N1 | > 1000 | 0.5 | – | – | – | – | – | – | – | – |
| O=c1c2sc3ncc4cn[nH]c4c3c2ncn1-c1ccc(Cl)cc1 | – | 19.6 | – | – | – | – | – | – | – | -12 |
| COc1ccc(-n2cnc3c(sc4nccc(N(C)C)c43)c2=O)cc1 | 10000 | 7.9 | 1.93 | 0.5 | 564 | 13.2 | 87 | – | 9.5 | – |
| O=c1c2sc3ncc4cc[nH]c4c3c2ncn1-c1ccc(Cl)cc1 | – | 2.4 | 0.018 | 0.5 | 37 | – | – | – | – | 1.7 |
| COc1ccc(-n2cnc3c(sc4ncc5cc[nH]c5c43)c2=O)cc1 | > 10000 | 28.6 | 1.32 | 2 | 394 | 6.6 | 39 | – | – | – |
| Cc1ccc(-n2cnc3c(sc4ncc5cc[nH]c5c43)c2=O)cc1 | > 1000 | 16.9 | 0.035 | 0.5 | 71 | – | – | – | – | – |
| Cc1ccc(-n2cnc3c(sc4ncc5c(c43)NCCO5)c2=O)cc1 | 702 | 0.5 | 0.077 | 1 | 70 | – | – | – | – | – |
